Reference: patent EP0052437A1, “Antibacterial compounds, processes for their preparation and compositions containing them” (BEECHAM GROUP PLC, priority 1980, dated 1982)
In brackets after ≈: the same amount, converted by molar mass.

What was measured:
Assay type in all cases: cell-based
[1] = tested on: M. suipneumoniae HK(2); experiment: Anti-mycoplasmal in vitro MIC; details: Mesomycoplasma hyopneumoniae, 144 h, Friis broth solidified with 0.9% agarose, 6 days incubation at 37°C
[2] = tested on: M. suipneumoniae Str. 11; experiment: Anti-mycoplasmal in vitro MIC; details: Mesomycoplasma hyopneumoniae, 144 h, Friis broth solidified with 0.9% agarose, 6 days incubation at 37°C
[3] = tested on: M. suipneumoniae J2206/183b; experiment: Anti-mycoplasmal in vitro MIC; details: Mesomycoplasma hyopneumoniae, 144 h, Friis broth solidified with 0.9% agarose, 6 days incubation at 37°C
[4] = tested on: M. suipneumoniae MS 16; experiment: Anti-mycoplasmal in vitro MIC; details: Mesomycoplasma hyopneumoniae, MS16, 144 h, Friis broth solidified with 0.9% agarose, 6 days incubation at 37°C
[5] = tested on: M. suipneumoniae LABER; experiment: Anti-mycoplasmal in vitro MIC; details: Mesomycoplasma hyopneumoniae, 144 h, Friis broth solidified with 0.9% agarose, 6 days incubation at 37°C
[6] = tested on: M. suipneumoniae UCD 1; experiment: Anti-mycoplasmal in vitro MIC; details: Mesomycoplasma hyopneumoniae, UCD1, 144 h, Friis broth solidified with 0.9% agarose, 6 days incubation at 37°C
[7] = tested on: M. suipneumoniae NCTC 10110; experiment: Anti-mycoplasmal in vitro MIC; details: Mesomycoplasma hyopneumoniae, NCTC10110, 144 h, Friis broth solidified with 0.9% agarose, 6 days incubation at 37°C
[8] = tested on: M. hyorhinis ATCC 23234; experiment: Anti-mycoplasmal in vitro MIC; details: Mesomycoplasma hyorhinis, ATCC23234, 144 h, Friis broth solidified with 0.9% agarose, 6 days incubation at 37°C
[9] = tested on: M. hyorhinis ATCC 25021; experiment: Anti-mycoplasmal in vitro MIC; details: Mesomycoplasma hyorhinis, ATCC25021, 144 h, Friis broth solidified with 0.9% agarose, 6 days incubation at 37°C
[10] = tested on: M. hyosynoviae ATCC 25591; experiment: Anti-mycoplasmal in vitro MIC; details: 144 h, Friis broth solidified with 0.9% agarose, 6 days incubation at 37°C
[11] = tested on: M. dispar NCTC 10125; experiment: Anti-mycoplasmal in vitro MIC; details: 144 h, Friis broth solidified with 0.9% agarose, 6 days incubation at 37°C
[12] = tested on: M. gallisepticum S6; experiment: Anti-mycoplasmal in vitro MIC; details: Mycoplasmoides gallisepticum, 144 h, Friis broth solidified with 0.9% agarose, 6 days incubation at 37°C
[13] = tested on: M. pneumoniae ATCC 15492; experiment: Anti-mycoplasmal in vitro MIC; details: Mycoplasmoides pneumoniae, ATCC15492, 144 h, Friis broth solidified with 0.9% agarose, 6 days incubation at 37°C
[14] = tested on: Bord. bronchiseptica BO8; experiment: Veterinary bacteria MIC; details: Bordetella bronchiseptica, Diagnostic Sensitivity Test Agar, 18 hours at 37°C
Protocol: (§1) The values were determined using a two fold serial dilutions.in Diagnostic Sensitivity Test Agar with an inoculum of 10^4 organisms and incubation for 18 hours at 37°C.

[15] = tested on: Erysipelothrix rhusiopathiae NCTC 8163; experiment: Veterinary bacteria MIC; details: NCTC8163, Diagnostic Sensitivity Test Agar, 18 hours at 37°C
Protocol: as §1

[16] = tested on: Past. multocida PA2; experiment: Veterinary bacteria MIC; details: Pasteurella multocida, Diagnostic Sensitivity Test Agar, 18 hours at 37°C
Protocol: as §1

[17] = tested on: S. dublin S7; experiment: Veterinary bacteria MIC; details: Salmonella enterica, Diagnostic Sensitivity Test Agar, 18 hours at 37°C
Protocol: as §1

[18] = tested on: S. typhimurium S18; experiment: Veterinary bacteria MIC; details: Salmonella enterica, Diagnostic Sensitivity Test Agar, 18 hours at 37°C
Protocol: as §1

[19] = tested on: Strep. agalactiae SPA1; experiment: Veterinary bacteria MIC; details: Streptococcus agalactiae, Diagnostic Sensitivity Test Agar, 18 hours at 37°C
Protocol: as §1

[20] = tested on: Strep. dysgalactiae SPD1; experiment: Veterinary bacteria MIC; details: Streptococcus dysgalactiae, Diagnostic Sensitivity Test Agar, 18 hours at 37°C
Protocol: as §1

[21] = tested on: Strep. uberis SPU1; experiment: Veterinary bacteria MIC; details: Streptococcus uberis, Diagnostic Sensitivity Test Agar, 18 hours at 37°C
Protocol: as §1

[22] = tested on: Bacillus subtilis 6633; experiment: Human bacteria MIC; details: nutrient agar with 5% chocolated horse blood, 18 hours at 37°C
Protocol: (§2) The values were determined by serial dilutions in nutrient agar with 5% chocolated horse blood after incubations for 18 hours at 37 °C.

[23] = tested on: Corynebacterium xerosis 9755; experiment: Human bacteria MIC; details: nutrient agar with 5% chocolated horse blood, 18 hours at 37°C
Protocol: as §2

[24] = tested on: E. Coli NCTC 10418; experiment: Human bacteria MIC; details: Escherichia coli, NCTC10418, nutrient agar with 5% chocolated horse blood, 18 hours at 37°C
Protocol: as §2

[25] = tested on: E. coli ESS; experiment: Human bacteria MIC; details: Escherichia coli, nutrient agar with 5% chocolated horse blood, 18 hours at 37°C
Protocol: as §2

[26] = tested on: K. aerogenes A; experiment: Human bacteria MIC; details: Klebsiella aerogenes, nutrient agar with 5% chocolated horse blood, 18 hours at 37°C
Protocol: as §2

[27] = tested on: Neisseria catarrhalis 1502; experiment: Human bacteria MIC; details: nutrient agar with 5% chocolated horse blood, 18 hours at 37°C
Protocol: as §2

[28] = tested on: P. mirabilis 889; experiment: Human bacteria MIC; details: Proteus mirabilis, nutrient agar with 5% chocolated horse blood, 18 hours at 37°C
Protocol: as §2

[29] = tested on: Pasteurella multocida 1633; experiment: Human bacteria MIC; details: nutrient agar with 5% chocolated horse blood, 18 hours at 37°C
Protocol: as §2

[30] = tested on: Ps. aeruginosa NCTC 10662; experiment: Human bacteria MIC; details: Pseudomonas aeruginosa, NCTC10662, nutrient agar with 5% chocolated horse blood, 18 hours at 37°C
Protocol: as §2

[31] = tested on: Sarcina lutea 8340; experiment: Human bacteria MIC; details: Micrococcus luteus, nutrient agar with 5% chocolated horse blood, 18 hours at 37°C
Protocol: as §2

[32] = tested on: Staph. aureus Oxford; experiment: Human bacteria MIC; details: Staphylococcus aureus, nutrient agar with 5% chocolated horse blood, 18 hours at 37°C
Protocol: as §2

[33] = tested on: Staph. aureus Russell; experiment: Human bacteria MIC; details: Staphylococcus aureus, nutrient agar with 5% chocolated horse blood, 18 hours at 37°C
Protocol: as §2

[34] = tested on: Staph. aureus W2827; experiment: Human bacteria MIC; details: Staphylococcus aureus, nutrient agar with 5% chocolated horse blood, 18 hours at 37°C
Protocol: as §2

[35] = tested on: Strep. 641848-C; experiment: Human bacteria MIC; details: nutrient agar with 5% chocolated horse blood, 18 hours at 37°C
Protocol: as §2

[36] = tested on: Strep. faecalis I; experiment: Human bacteria MIC; details: Enterococcus faecalis, nutrient agar with 5% chocolated horse blood, 18 hours at 37°C
Protocol: as §2

SMILES | MIC [1] [µg/mL] | MIC [2] [µg/mL] | MIC [3] [µg/mL] | MIC [4] [µg/mL] | MIC [5] [µg/mL] | MIC [6] [µg/mL] | MIC [7] [µg/mL] | MIC [8] [µg/mL] | MIC [9] [µg/mL] | MIC [10] [µg/mL] | MIC [11] [µg/mL] | MIC [12] [µg/mL] | MIC [13] [µg/mL] | MIC [14] [µg/mL] | MIC [15] [µg/mL] | MIC [16] [µg/mL] | MIC [17] [µg/mL] | MIC [18] [µg/mL] | MIC [19] [µg/mL] | MIC [20] [µg/mL] | other results
C/C(=C\C(=O)OCc1cccc(C#N)c1)CC1OCC(C/C=C/C(C)C(C)O)C(O)C1O (stereo not drawn) [Example 5, m-Cyanobenzyl monate C] | 1 (≈ 2.25 µM) | 0.5 (≈ 1.13 µM) | 1 (≈ 2.25 µM) | 0.5 (≈ 1.13 µM) | 0.5 (≈ 1.13 µM) | 1 (≈ 2.25 µM) | 1 (≈ 2.25 µM) | 0.5 (≈ 1.13 µM) | 0.5 (≈ 1.13 µM) | 0.5 (≈ 1.13 µM) | 0.1 (≈ 0.225 µM) | 10 (≈ 22.5 µM) | 5 (≈ 11.3 µM) | > 80 | 80 (≈ 180 µM) | 5 (≈ 11.3 µM) | > 80 | > 80 | 2.5 (≈ 5.64 µM) | 0.156 (≈ 0.352 µM) | MIC [21]: 0.156 µg/mL (≈ 0.352 µM); MIC [22]: 2.5 µg/mL (≈ 5.64 µM); MIC [23]: > 100 µg/mL; MIC [24]: > 100 µg/mL; MIC [25]: 5 µg/mL (≈ 11.3 µM); MIC [26]: > 100 µg/mL; MIC [27]: 2.5 µg/mL (≈ 5.64 µM); MIC [28]: > 100 µg/mL; MIC [29]: 10 µg/mL (≈ 22.5 µM); MIC [30]: > 100 µg/mL; MIC [31]: > 100 µg/mL; MIC [32]: 2.5 µg/mL (≈ 5.64 µM); MIC [33]: 2.5 µg/mL (≈ 5.64 µM); MIC [34]: 2.5 µg/mL (≈ 5.64 µM); MIC [35]: 2.5 µg/mL (≈ 5.64 µM); MIC [36]: > 100 µg/mL
C/C(=C\C(=O)OCc1cc(C#N)cc(C#N)c1)CC1OCC(CC2OC2C(C)C(C)O)C(O)C1O (stereo not drawn) [Example 6, 3,5-Dicyanobenzyl monate A] | 0.1 (≈ 0.206 µM) | 0.05 (≈ 0.103 µM) | 0.1 (≈ 0.206 µM) | 0.05 (≈ 0.103 µM) | 0.05 (≈ 0.103 µM) | 0.1 (≈ 0.206 µM) | 0.1 (≈ 0.206 µM) | 0.05 (≈ 0.103 µM) | 0.05 (≈ 0.103 µM) | 0.1 (≈ 0.206 µM) | 0.05 (≈ 0.103 µM) | 2.5 (≈ 5.16 µM) | 2.5 (≈ 5.16 µM) | 80 (≈ 165 µM) | 80 (≈ 165 µM) | 0.625 (≈ 1.29 µM) | > 80 | > 80 | 0.625 (≈ 1.29 µM) | 0.625 (≈ 1.29 µM) | MIC [21]: 0.312 µg/mL (≈ 0.644 µM); MIC [22]: 2.5 µg/mL (≈ 5.16 µM); MIC [23]: > 100 µg/mL; MIC [24]: > 100 µg/mL; MIC [25]: 5 µg/mL (≈ 10.3 µM); MIC [26]: > 100 µg/mL; MIC [27]: 0.5 µg/mL (≈ 1.03 µM); MIC [28]: 100 µg/mL (≈ 206 µM); MIC [29]: 2.5 µg/mL (≈ 5.16 µM); MIC [30]: > 100 µg/mL; MIC [31]: > 100 µg/mL; MIC [32]: 2.5 µg/mL (≈ 5.16 µM); MIC [33]: 5 µg/mL (≈ 10.3 µM); MIC [34]: 5 µg/mL (≈ 10.3 µM); MIC [35]: 1 µg/mL (≈ 2.06 µM); MIC [36]: 100 µg/mL (≈ 206 µM)
